Measured values reported in patent US20110165145A1, “IGF-II/IGF-IIE BINDING PROTEINS” (priority 2008, published 2011).

What was measured:
Colo205 cells = assay: Colo205 cell proliferation in complete medium containing 10% FBS; assay type: cell-based; details: 2 μM, 4 days
Description: The plate was placed in a 37° C. incubator with 5% CO2 for 4 days. Proliferation was measured by CellTiter 96Aqueous One Solution Reagent (Promega). […] Colo205 cells have two cell populations in culture vessels.

[1] = tested on: IGF-I induced IGF-IR phosphorylation; assay: IGF-I induced IGF-IR phosphorylation in Hep3B cells (IP/WB); assay type: cell-based; details: 10 nM DX-2647
Description: (§1) After being washed twice with ice-cold PBS containing 1 mM sodium orthovanadate, cells were lysed and immunoprecipitated with anti-IGF-IR antibody. Immunoprecipitated proteins were resolved in a 4-12% Bis-tris gel, and transferred to a PVDF membrane. The membrane was probed with anti-phospho-IGF-IR (p-IGF-1R) antibody first, and then stripped and re-probed with anti-IGF-IR antibody for detection of total IGF-1R proteins.

[2] = tested on: human SKUT-1 myosarcoma cell; assay: Cisplatin (CDDP)-induced cytotoxicity in SKUT-1 cells (CellTitreBlue); assay type: cell-based; details: 20% FCS, 48 hours
IGF-II [3] = target: T1, IGF-II (Homo sapiens, UniProt P01344); assay: SPR affinity of DX-2647 (IgG captured on anti-human Fc chip), IGF-II; details: 1:1 binding model
T1 construct: IGF-II (amino acids 1-67)

IGF-I = IGF-I (Homo sapiens, UniProt P05019); assay: SPR affinity of DX-2647, IGF-I; details: 1:1 binding model
From the text: IGF-II and the related growth factor, IGF-I, share 70% homology at the amino acid level.

IGF-II [4] = target: T1, IGF-II; assay: SPR assays of DX-2647 binding to IGF-II complexed with receptors/IGFBPs
From the text: (§2) While the IGF-IR and IR-A are the principal mediators of the biological activity of IGF-II, the protein can bind with high affinity to a number of other proteins that include a family of six serum IGF-binding proteins (IGFBP 1-6), and the cell-surface mannose-6-phosphate receptor (IGF-IIR).

[5] = tested on: IGF-II-induced IGF-1R phosphorylation in Hep3B cells; assay: IGF-II-induced IGF-1R phosphorylation in Hep3B cells (IP/WB); assay type: cell-based
Description: as §1

[6] = tested on: autocrine IGF-II induced IGF-1R phosphorylation in Hep3B cells; assay: Autocrine (endogenous) IGF-II induced IGF-1R phosphorylation in Hep3B cells (IP/WB); assay type: cell-based; details: 10 nM, 48 h serum free
Description: Hep3B cells synthesize and secrete IGF-II which in turn binds IGF-1R and induces IGF-1R phosphorylation in an autocrine fashion. The autocrine IGF-II induced IGF-1R phosphorylation can be detected by IP/WB analysis after 48 h serum starvation of cells. […] To perform the experiments, Hep3B cells were seeded and cultured for 24 h. […] After being washed twice with ice-cold PBS containing 1 mM sodium orthovanadate, cells were lysed and immunoprecipitated with anti-IGF-IR antibody. Immunoprecipitated proteins were resolved in a 4-12% Bis-tris gel, and transferred to a PVDF membrane. The membrane was probed with anti-phospho-IGF-IR (p-IGF-1R) antibody first, and then stripped and re-probed with anti-IGF-IR antibody for detection of total IGF-1R proteins.

[7] = tested on: HepG2 human hepatoma cells; assay: HepG2 anchorage-independent colony formation in soft agar; assay type: cell-based; details: 10% FCS, two weeks
Description: Cells were seeded in growth medium plus 10% FCS in soft agar in the presence of increasing concentrations of antibody. Colonies>50 cells were counted after two weeks. […]

[8] = tested on: IGF-II-induced IGF-1R phosphorylation in HepG2 cells; assay: IGF-II-induced IGF-1R phosphorylation in HepG2 cells (IP/WB); assay type: cell-based; details: 10 min
Description: as §1

HepG2 cells = assay: HepG2 anchorage dependent colony formation; assay type: cell-based; details: 1 nM; 10% FBS; 7 days
Description: HepG2 cells were seeded into a 6-well plate at 1000 cells/well in 2 ml of culture medium containing 10% FBS. […] Isotype control IgG (Ctrl. IgG) was used at 100 nM. After incubation cells were fixed and stained with crystal violet blue. Five pictures were taken randomly from each well and data were analyzed using the MetaMorph software. The results are summarized graphically in FIG. 10.

IGF-IIE [9] = target: T2, IGF-IIE (Homo sapiens, UniProt P01344); assay: SPR assays of DX-2647 binding to IGF-IIE complexed with receptors/IGFBPs; details: FIGS. 5A and 5B
T2 construct: the construct comprising amino acids 1-104, which encompass the E domain
From the text: as §2

[10] = tested on: IGF-II induced Colo205 cell proliferation; assay: IGF-II induced Colo205 cell proliferation in serum free medium; assay type: cell-based; details: 2 nM IGF-II, 96 h
Description: In this experiment, cells were cultured in serum free medium containing 2 nM IGF-II. […] Neutralizing IGF-II antibody (R&D Systems) was used at 333 nM as a positive control. […] IGF-II neutralizing antibody from R&D at 333 nM was used as a positive control. The plate was placed in a 37° C. incubator with 5% CO2 for 4 days. Proliferation was measured by CellTiter 96Aqueous One Solution Reagent (Promega).

IGF-IIE [11] = target: T2, IGF-IIE; assay: SPR affinity of DX-2647 (IgG captured on anti-human Fc chip), IGF-IIE; details: 1:1 binding model
Hep3B cells = assay: Hep3B anchorage dependent colony formation assay; assay type: cell-based; details: two concentrations; 10% FBS; 1 week
From the text: Colonies>50 cells were scored in three independent experiments, each with triplicate dishes.

[12] = tested on: IGF-IR phosphorylation in Colo205 cells; assay: IGF-IR phosphorylation in Colo205 cells; assay type: cell-based
From the text: Upon ligand binding, IGF-1R undergoes autophosphorylation on tyrosine residues of the two β-subunits.

[13] = tested on: human breast cancer cells; details: immunodeficient mice; cited from earlier work

T1 sequence (P01344 25-91): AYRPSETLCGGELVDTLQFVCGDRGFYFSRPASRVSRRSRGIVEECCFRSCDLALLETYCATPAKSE
T2 sequence (P01344 25-128): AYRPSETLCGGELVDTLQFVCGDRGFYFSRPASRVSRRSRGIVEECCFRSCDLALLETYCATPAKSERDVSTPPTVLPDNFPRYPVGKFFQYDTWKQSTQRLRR
Sequence of IGF-I (P05019 49-118 limits assumed, species assumed): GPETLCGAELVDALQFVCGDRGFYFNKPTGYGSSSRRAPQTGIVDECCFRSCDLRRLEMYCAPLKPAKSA

For “DX-2647: IGF II/IGF IIE inhibitory antibody germlined from 566A-M0064-F02 parental clone; SEQ ID NO: 59 and 60”, which “inhibition of Colo205 proliferation in complete growth medium” value (Colo205 cells) is on record?
Its value is “significantly inhibited”.

And the “inhibition of IGF-I induced IGF-IR phosphorylation” value [1]?
Its value is “failed to show significant inhibition”.

What about the “enhancement of cisplatin (CDDP)-induced cellular cytotoxicity” value [2] of the same substance?
Its value is “potently enhanced”.

What about the “ka IGF-II” value (IGF-II [3]) of the same substance?
The value was 1.06 E6 M-1s-1.

And the “kd IGF-II” value (IGF-II [3])?
The value was 2.38 E-5 s-1.

What about the “ka IGF-I” value (IGF-I) of the same substance?
The value was 5.8e+06 M⁻¹ s⁻¹.

And the “kd IGF-I” value (IGF-I)?
The value was 0.1 s⁻¹.

What about the “ability to bind IGF-II complexed with the IGFBPs assayed” value (IGF-II [4]; FIGS. 5A and 5B) of the same substance?
Its value is “inhibited”.

What about the “blocking of IGF-II binding to all three cell-surface receptors for IGF-II” value (IGF-II [4]; FIGS. 5A and 5B) of the same substance?
Its value is “blocks the binding”.

And the “binding to IGFBP-1 alone” value (IGF-II [4]; Fc-captured antibody, FIG. 5A)?
The value was “does not bind”.

What about the “binding to free IGF-II” value (IGF-II [4]; Fc-captured antibody, FIG. 5A) of the same substance?
Its value is “binds free IGF-II”.

What about the “binding to pre-formed complex of IGF-II and IGFBP-1” value (IGF-II [4]; Fc-captured antibody, FIG. 5A) of the same substance?
Its value is “does not bind”.

What about the “inhibition of IGF-II-induced IGF-1R phosphorylation” value ([5]; 0.1 nM DX-2647) of the same substance?
Its value is “partial inhibition”.

What about the “inhibition of IGF-II-induced IGF-1R phosphorylation” value ([5]; 1 nM DX-2647) of the same substance?
The value was “complete inhibition”.

What about the “inhibition of autocrine IGF-II induced IGF-1R phosphorylation” value [6] of the same substance?
Its value is “significant inhibitory effect”.

And the “inhibition of HepG2 colony formation in soft agar” value [7]?
Its value is “strongly inhibited”.

And the IC50 ([7]; ±0.74 standard error, read-out: mean IC50, anchorage-independent growth of HepG2 cells)?
Its IC50 is 1.5 nM.

And the “inhibition of IGF-II-induced IGF-1R phosphorylation” value ([8]; 0.3 nM DX-2647, IGF-II 2.6 nM)?
Its value is “Partial inhibition”.

And the “inhibition of IGF-II-induced IGF-1R phosphorylation” value ([8]; 3 nM DX-2647, IGF-II 2.6 nM)?
Its value is “complete inhibition”.

And the “inhibition of colony-forming ability of HepG2 cells” value (HepG2 cells)?
The value was “significantly inhibited”.

And the “ability to bind IGF-IIE complexed with the IGFBPs assayed” value (IGF-IIE [9])?
Its value is “inhibited”.

What about the “blocking of IGF-IIE binding to all three cell-surface receptors for IGF-II” value (IGF-IIE [9]) of the same substance?
Its value is “blocks the binding”.

What about the “inhibition of IGF-II induced Colo205 cell proliferation” value [10] of the same substance?
The value was “inhibited”.

And the “lowest concentration showing maximum potency in inhibiting IGF-II stimulated Colo205 proliferation” value ([10]; 1 nM to 100 nM tested)?
The value was 10 nM.

What about the “ka IGF-IIE” value (IGF-IIE [11]) of the same substance?
The value was 2.06 E6 M-1s-1.

And the “kd IGF-IIE” value (IGF-IIE [11])?
The value was “less than 2 E-5 s-1”.

What about the “inhibition of colony formation of Hep3B cells” value (Hep3B cells) of the same substance?
The value was “inhibited colony formation in a dose-dependent manner”.

And the “effective concentration for inhibition of IGF-IR phosphorylation” value [12]?
Its value is 10 nM.

With “pegvisomant: PEGylated analog of human growth hormone, 191 amino acid residues, acting as GH receptor antagonist” as the substance, how does the “growth of human breast cancer cells grown as xenografts” value [13] read?
The value was “inhibits the growth”.
